Measured values reported in patent US5250542A, “Peripherally selective piperidine carboxylate opioid antagonists” (Eli Lilly and Company, priority 1992, dated 1993).
Structures can show the parent of a compound that is named as a salt. Where two headings read alike, the source gives them in different places.

Assays:
mu receptor = biological target: T1, mu receptor (Rattus norvegicus, UniProt P33535); assay: opioid receptor binding assay, [3H] NAL (tritiated naloxone), mu receptor; design: species or system rat (Male Sprague Dawley), brain minus cerebellum; conditions: for inhibition at 0.01 µM / inhibition at 0.1 µM: 20 min
T1 construct: rat whole brain minus cerebellum for mu was homogenized; from tissue; host or cells: brain of male Sprague Dawley rats, whole brain minus cerebellum, homogenate fraction
T1 sequence (P33535 whole entry): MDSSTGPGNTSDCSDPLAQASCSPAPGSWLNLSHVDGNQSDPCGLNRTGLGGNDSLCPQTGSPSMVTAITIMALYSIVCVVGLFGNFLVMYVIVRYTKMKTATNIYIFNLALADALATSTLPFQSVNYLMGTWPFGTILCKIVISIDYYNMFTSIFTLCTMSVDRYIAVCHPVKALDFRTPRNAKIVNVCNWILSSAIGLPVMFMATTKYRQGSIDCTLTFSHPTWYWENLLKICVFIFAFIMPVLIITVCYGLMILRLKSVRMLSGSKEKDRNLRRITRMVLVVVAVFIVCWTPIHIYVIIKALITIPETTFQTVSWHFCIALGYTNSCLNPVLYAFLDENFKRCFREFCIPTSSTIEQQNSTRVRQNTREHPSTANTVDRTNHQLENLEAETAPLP
Description: This assay was conducted by the following procedure.
Male Sprague Dawley rats for mu site experiments were sacrificed via decapitation and the brains were removed. The brain tissue, rat whole brain minus cerebellum for mu was homogenized in a Teflon and glass tissue homogenizer. A supernatant I, pellet IV, fraction was frozen in a nitrogen freezer at 1.33 g/ml concentration and stored for not longer than five weeks prior to use. Pellets were rehydrated with physiological buffer prior to use.
The reaction was initiated by the addition of the resuspended tissue which had been preincubated at 37° C. for 20 minutes. The reaction mixture was incubated in a 37° C. water bath for 20 minutes. The reaction was terminated by rapid filtration, (Brandel Cell Harvestor), through Whatman GF/B glass filters that had been presoaked in Krebs-Hepes buffer pH 7.4. The filters were then washed 2x with 5 ml of ice cold Krebs-Hepes buffer pH 7.4. Washed filters were placed in scintillation vials and 10 ml RedySolv, (Brandel), was added and samples counted in a Searle D-300 beta counter. Means and standard error statistics were calculated for triplicate experimental determinations in certain cases. The incubation time for the reaction mixture was 20 minutes at 37° C.
Ki values were calculated using a minitab statistical program according to the following formula: [formula] wherein IC50 is the concentration at which 50% of the ^3 H ligand is displaced by the test compounds and KD is the dissociation constant for the ^3 H ligand at the receptor site. KD can be determined as described by Bennett, "Methods in Binding Studies", Neurotransmitter Receptor Binding, Yamamura, et al., ed., p. 57-90, Raven Press, N.Y. (1978) incorporated herein by reference.
In the Table, column 1 sets forth the Example Number of the compound evaluated, column 2 the Ki value in nanomolar (nM) at the mu receptor and columns 3 and 4 the percent displacement by the test compound at the indicated concentration, i.e., 10 nm or 100 nm.

opioid receptor = biological target: T2, opioid receptor (Mus musculus, UniProt P42866); assay: mouse writhing analgesis test: block of morphine-induced analgesia; assay type: in vivo, CF-1 male mice; design: unit not given here; conditions: dose of antagonist that reduced the inhibition of writhing produced by 1.25 mg/kg morphine sulfate to 50%; subcutaneous, 20 min before acetic acid
T2 construct: Five CF-1 male mice (Charles River, Portage, Mich.); from tissue; host or cells: living CF-1 male mice (in vivo test; endogenous receptor)
T2 sequence (P42866 whole entry): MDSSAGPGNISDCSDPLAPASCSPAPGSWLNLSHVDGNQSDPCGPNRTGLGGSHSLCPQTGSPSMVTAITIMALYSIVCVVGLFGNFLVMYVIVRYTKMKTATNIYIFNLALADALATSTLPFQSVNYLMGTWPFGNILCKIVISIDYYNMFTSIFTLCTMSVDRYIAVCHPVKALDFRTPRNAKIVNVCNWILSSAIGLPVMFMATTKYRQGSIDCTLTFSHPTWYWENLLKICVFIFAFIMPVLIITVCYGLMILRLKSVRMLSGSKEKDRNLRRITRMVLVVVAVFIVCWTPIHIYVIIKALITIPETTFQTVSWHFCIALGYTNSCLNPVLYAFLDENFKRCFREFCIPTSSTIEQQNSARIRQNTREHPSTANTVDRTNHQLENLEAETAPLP
Description: In order to determine in vivo opioid receptor antagonism, the mouse writhing analgesis test was used. Test compounds were measured for their ability to block morphine-induced analgesia.
Five CF-1 male mice (Charles River, Portage, Mich.), weighing approximately 20 g after being fasted overnight, were observed simultaneously for the writhing response. The writhing response was defined as a contraction of the abdominal musculature, followed by the extension of the hind limbs, and was induced by the intraperitoneal adminstration of 0.6% acetic acid in a volumne of 1 ml/100 g body weight. The observation period was 10 min. in duration, beginning 5 min. after injection of acetic acid. The percent inhibition of writhing was calculated from the average number of writhes in the control (non-drug) group. Each data point is the mean (±standarderror) for five mice. The ED50 was defined as the dose of agonist that inhibited mean writhing by 50%. […] Each mouse was only used once. All drugs were administered subcutaneously (1 ml/100 g bwt) 20 min. before the injection of acetic acid.

[1] = biological target: T3, peripheral opioid receptors (Mus musculus, UniProt P42866); assay: precipitated diarrhea in morphine-maintained mice (peripheral opioid activity) and comparison with the writhing test; assay type: in vivo; conditions: for Ratio (AD50 mouse writhing test / ED50 mouse diarrhea test): higher ratio = greater relative antagonism of peripheral opioid receptors; for ED50: mouse, 0.5 h, morphine-maintained mice, antagonist subcutaneous or oral, 30 min observation
T3 construct: Mice maintained (6 mice/cage) on 0.01M saccharin water with 1 g/1 morphine sulfate; from tissue; host or cells: living morphine-maintained mice (in vivo test; endogenous receptor)
T3 sequence (P42866 whole entry): as above
Description: Determinations of peripheral opioid activity were conducted. Mice maintained (6 mice/cage) on 0.01M saccharin water with 1 g/1 morphine sulfate for a minimum of 10 days with mice averaging 3.0^+ g water/mouse/day for at least three days are used as subjects. The morphine water was removed 45 min. prior to injection with the proposed opioid antagonist. Initial testing consisted of 5 mice/dose of compound. The antagonist was given by the subcutaneous or oral, route of administration,and the mice were placed in 11-14"×4 7/12 I.D. clear plastic cylinders with white paper towels used for a floor.
The mice were then monitored visually for 30 minutes post-injection for the presence of jumping and of diarrhea. Jumping was scored as positive if at least one jump occurred in 30 min. Diarrhea was scored as positive when feces were moist enough to stain the white paper at the base of the cylinder. After 30 minutes of testing, the mice were placed back in original cages, put back on morphine water, and not tested again for 48 hrs. Lower doses of the antagonist compounds were tested until threshold doses for diarrhea were determined. Diarrhea is a peripherally mediated sign of precipitated opiate abstinence.
The extent of the effect on peripheral activity compared to central activity of the present compounds can-be determined by comparing the AD50 for the mouse writhing test with the ED50 for the mouse diarrhea test. The higher the ratio, the greater the relative antagonism of the peripheral opioid receptors by a particular compound.

[2] = read-out: % displacement at 10 nM, 10 nM test compound, [3H] naloxone 0.5 nM
[3] = read-out: % displacement at 100 nM, 100 nM test compound, [3H] naloxone 0.5 nM
[4] = read-out: % displacement at 100 nM

SMILES	Ki (mu receptor) [nM]	inhibition at 0.01 µM (mu receptor; [2]) [%]	inhibition at 0.1 µM (mu receptor; [3]) [%]	AD50 (opioid receptor)	Ratio (AD50 mouse writhing test / ED50 mouse diarrhea test) [1]	ED50 [1] [mg/kg]	inhibition at 0.1 µM (mu receptor; [4]) [%]	inhibition at 0.01 µM (mu receptor; 10 nM test compound, [3H] naloxone 0.5 nM, read-out: % displacement at 10 nM) [%]	inhibition at 0.1 µM (mu receptor; 100 nM test compound, [3H] naloxone 0.5 nM, read-out: % displacement at 100 nM) [%]
C[C@H]1CN(CCC(C(=O)NCCCC(=O)O)C2CCCCC2)CC[C@@]1(C)c1cccc(O)c1 (relative stereo) [Example 28, 4-[[2-cyclohexyl-4-[4-(3-hydroxyphenyl)-3,4-dimethyl-1-piperidinyl]-1-oxobutyl]amino]-butanoic acid monohydrate]	3.09	86	95	> 40	> 4000	0.01			
CCOC(=O)CNC(=O)C(CC1CCCCC1)CN1CC[C@@](C)(c2cccc(O)c2)[C@@H](C)C1 (relative stereo) [Example 29, 2-[[3-[4-(3-hydroxyphenyl-3,4-dimethyl-1-piperidinyl]-2-cyclohexylmethyl-1-oxopropyl]amino]acetic acid ethyl estermonohydrochloride]	2.94	98	100	3.9	23	0.17			
C[C@H]1CN(CC(CC2CCCCC2)C(=O)NCC(=O)O)CC[C@@]1(C)c1cccc(O)c1 (relative stereo) [Example 30, 2-[[3-[4-(3-hydroxyphenyl)-3,4-dimethyl-1-piperidinyl]-2-(cyclohexylmethyl)-1-oxopropyl]-amino]acetic acid monohydrate]	0.42	89	93	> 40	> 2353	0.017			
CCNC(=O)CNC(=O)C(CC1CCCCC1)CN1CC[C@@](C)(c2cccc(O)c2)[C@@H](C)C1 (relative stereo) [Example 31, N-ethyl-2-[[3-[4-(3-hydroxyphenyl)-3,4-dimethyl-1-piperidinyl]-2-(cyclohexylmethyl)-1-oxo-propyl]amino]acetamide monohydrochloride monohydrate]	0.4	100		5.3	38	0.14	97		
CNC(=O)CNC(=O)C(CC1CCCCC1)CN1CC[C@@](C)(c2cccc(O)c2)[C@@H](C)C1 (relative stereo) [Example 32, N-[2-methylamino-2-oxoethyl]-3-[4-(3-hydroxphenyl)-3,4-dimethyl(-1-piperidinyl]-2-cyclohexylmethylpropanamidemonohydrochloride]	0.72	97	100	7.3	45	0.16			
C[C@H]1CN(CC(CC2CCCCC2)C(=O)NCC(N)=O)CC[C@@]1(C)c1cccc(O)c1 (relative stereo) [Example 33, 2-[[3-[4-(3-hydroxyphenyl)-3,4-dimethyl-1-piperidinyl]-2-(cyclohexylmethyl)-1-oxophenyl]amino]acetamide monohydrochloride]	1.19	95	100	10.2	60	0.17			
C[C@H]1CN(CC(CC2CCCCC2)C(=O)NCCC(=O)OCc2ccccc2)CC[C@@]1(C)c1cccc(O)c1 (relative stereo) [Example 34, 3-[[2-(cyclohexylmethyl)-1-oxo-3-[4-(3-hydroxyphenyl)-3,4-dimethyl-1-piperidinyl]propyl]-amino]propanoic acid phenylmethyl ester monohydrochloride]	36.6	78		15.1	84	0.18	97		
C[C@H]1CN(CC(Cc2ccccc2)C(=O)N(C)CC(=O)O)CC[C@@]1(C)c1cccc(O)c1 (relative stereo) [Example 66, [[2-[[4-(3-hydroxyphenyl)-3,4-dimethyl-1-piperidinyl]methyl]-1-oxo-3-phenylpropyl]-methylamino]acetic acid monohydrate]	1.96	70	85	14.0	< 4.7	< 3			
CCOC(=O)CNC(=O)CNC(=O)C(Cc1ccccc1)CN1CC[C@@](C)(c2cccc(O)c2)[C@@H](C)C1 (relative stereo) [Example 67, [[2-[2-[4-(3-hydroxyphenyl)-3,4-dimethyl-1-piperidinyl]methyl]-3-phenyl-1-oxopropyl]-amino]acetyl]amino]acetic acid ethyl ester monohydrochloride]	0.37	79	91	5.5	36	0.15			
C[C@H]1CN(CC(Cc2ccccc2)C(=O)NCC(=O)NCC(=O)O)CC[C@@]1(C)c1cccc(O)c1 (relative stereo) [Example 68, N-(carboxylmethyl-)-2-[[3-[4-(3-hydroxyphenyl)-3,4-dimethyl-1-piperidinyl]-2-(phenylmethyl)-1-oxopropyl]amino]acetamide monohydrate]	1.51	79	86	> 40	> 174	0.23			
C[C@H]1CN(CC(Cc2ccccc2)C(=O)NCCN(C)C)CC[C@@]1(C)c1cccc(O)c1 (relative stereo) [Example 69, N-[2-(dimethylamino)ethyl]-3-[4-(3-hydroxyphenyl)-3,4-dimethyl-1-piperidine]-2-phenylmethylpropanamide dihydrochloride]				30	51	1.7		57	89
CCc1noc(CNC(=O)C(Cc2ccccc2)CN2CC[C@@](C)(c3cccc(O)c3)[C@@H](C)C2)n1 (relative stereo) [Example 71, 3-[4-(3-hydroxyphenyl)-3,4-dimethyl1-piperidinyl]-2-(phenylmethyl)-N-[(3-ethyl-1,2,4-oxadiazol-5-yl)methyl]propanamide]	0.71	81		2.1	11	0.19	94		
